Laboratory results from patent US10214546B2, “Btk inhibitors” (MERCK SHARP & DOHME CORP., priority 2014, dated 2019).
Like-named read-outs stand apart in the source and are kept apart here.

Legend:
[1] = target: BTK enzyme (recombinant full-length BTK, hBTK) (Homo sapiens (Human), UniProt Q06187); assay: BTK enzymatic activity LANCE TR-FRET assay; assay type: biochemical; conditions: 50 pM hBTK, 25 μM ATP, 2 μM biotin-A5-peptide; compound range 1 μM to 0.017 nM; read-out: BTK binding IC50
Procedure: Btk Enzyme Activity Assay Methods
BTK enzymatic activity was determined with the LANCE (Lanthanide Chelate Excite) TR-FRET (Time-resolved fluorescence resonance energy transfer) assay. […] Phosphorylation reactions were allowed to proceed for 120 minutes. […] After 60 minutes incubation with detection reagents, reaction plates were read on a PerkinElmer EnVision plate reader using standard TR-FRET protocol. […] IC50 values were determined by 4 parameter robust fit of TR-FRET ratio values vs. (Log10) compound concentrations.

[2] = tested on: adenosine uptake into HeLa cells; assay: [3H]Adenosine uptake assay in HeLa cells; assay type: cell-based; conditions: [3H]adenosine accumulation in HeLa cells, compound range 10 μM to 0.032 nM, read-out: ADU inhibition IC50
Procedure: Compounds are also screened in an adenosine uptake functional cellular assay using the protocol described below:
[^3H]Adenosine Uptake Assay Methods
Adenosine uptake activity was determined by monitoring the accumulation of tritiated adenosine into HeLa cells (ATCC catalog # CCL-2) using a PMT-based radiometric detection instrument. In this assay, the potency (IC50) of each compound was determined from a ten point (1:3 serial dilution; final compound concentration range in assay from 10 µM to […]) titration curve using the following outlined procedure. To each well of a 96-well CytoStar-T scintillating microplate (Perkin Elmer Catalog # RPNQ0163), 25 000 HeLa cells in 100 µL of growth medium comprising: Minimum Essential Media (Life Technologies Catalog #11095-080)+10% (v/v) foetal bovine serum (FBS; Sigma Aldrich Catalog # F2442) was added. These cells were incubated overnight at 37° C. in a humidified atmosphere with 5% (v/v) CO2. After this time the growth medium was removed and replaced with 40 μL assay medium comprising: Hanks balanced salts solution (HBSS; Thermo Fisher Catalog # SH30268.01)+5% (v/v) FBS. Compound stock solutions in DMSO were diluted in assay medium to 2.5× final compound concentration maintaining a constant DMSO concentration of 0.25% (v/v). 40 μL of compound in assay medium was dispensed into individual wells of the Cytostar-T plates and the plates were incubated for 30 minutes under ambient laboratory conditions. Following this incubation, 20 μL of 500 nM [^3H] adenosine (American Radiolabeled Chemicals Inc. […] The amount of radiolabel accumulation was then determined using a Perkin Elmer Topcount NXT microplate reader. In brief, HeLa cells adhere to the bottom of the Cytostar-T plate, uptake of [^3H]adenosine into these cells brings the radiolabel into sufficient proximity to excite the scintillant in the base of the plates. These events are captured by single PMT, time-resolved coincidence counting. IC50 values were determined by 4 parameter robust fit of counts per second values vs. (Log10) compound concentrations.

BTK enzyme (recombinant full-length BTK, hBTK), sequence (Q06187 whole entry): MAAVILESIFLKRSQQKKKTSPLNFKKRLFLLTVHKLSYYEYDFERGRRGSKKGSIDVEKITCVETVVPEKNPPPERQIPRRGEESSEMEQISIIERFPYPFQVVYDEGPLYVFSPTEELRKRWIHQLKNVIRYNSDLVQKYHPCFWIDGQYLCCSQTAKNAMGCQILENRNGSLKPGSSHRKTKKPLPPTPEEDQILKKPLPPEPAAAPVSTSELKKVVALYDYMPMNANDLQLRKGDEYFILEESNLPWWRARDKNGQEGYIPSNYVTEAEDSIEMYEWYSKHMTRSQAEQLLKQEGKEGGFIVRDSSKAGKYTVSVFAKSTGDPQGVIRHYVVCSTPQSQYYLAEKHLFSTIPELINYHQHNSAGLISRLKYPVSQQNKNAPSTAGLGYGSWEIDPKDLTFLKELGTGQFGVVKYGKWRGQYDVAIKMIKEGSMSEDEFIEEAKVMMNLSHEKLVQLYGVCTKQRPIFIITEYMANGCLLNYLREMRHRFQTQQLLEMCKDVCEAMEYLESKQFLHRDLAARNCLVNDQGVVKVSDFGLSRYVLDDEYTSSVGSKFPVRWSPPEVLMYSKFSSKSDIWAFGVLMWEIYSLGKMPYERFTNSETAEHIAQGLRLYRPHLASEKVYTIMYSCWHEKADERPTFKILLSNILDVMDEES

Compound | IC50 [1] [nM] | IC50 [2] [nM] | IC50 ([2]; Homo sapiens, HeLa) [nM]
COc1cc(C(O)(c2cccc(C(F)(F)F)c2)C(F)(F)F)ccc1-c1nc([C@@H]2CC[C@H]3CCC(=O)N3C2)n2ccnc(N)c12 (single isomer, unassigned) [Example 10] | 496 | 2160 | –
COc1cc(C(O)(c2cccc(C(F)(F)F)c2)C(F)(F)F)ccc1-c1nc([C@@H]2CC[C@H]3CCC(=O)N3C2)n2ccnc(N)c12 (single isomer, unassigned) [Example 11] | 1.8 | 5340 | –
C[C@](O)(c1ccccc1)c1ccc(-c2nc([C@@H]3CC[C@H]4CCC(=O)N4C3)n3ccnc(N)c23)cc1 [Example 1, (6R,8aS)-6-(8-amino-1-(4-((S)-1-hydroxy-1-phenylethyl)phenyl)imidazo[1,5-a]pyrazin-3-yl)hexahydroindolizin-3(2H)-one] | 65.2 | – | 3340
C[C@@](O)(c1ccccc1)c1ccc(-c2nc([C@@H]3CC[C@H]4CCC(=O)N4C3)n3ccnc(N)c23)cc1 [Example 2, (6R,8aS)-6-(8-amino-1-(4-((R)-1-hydroxy-1-phenylethyl)phenyl)imidazo[1,5-a]pyrazin-3-yl)hexahydroindolizin-3(2H)-one] | 1.6 | – | 6350
C[C@@](O)(c1ccc(-c2nc([C@@H]3CC[C@H]4CCC(=O)N4C3)n3ccnc(N)c23)cc1)c1cccc(C(F)(F)F)c1 [Example 3, (6R,8aS)-6-(8-amino-1-(4-((R)-1-hydroxy-1-(3-(trifluoromethyl)phenyl)ethyl)phenyl)imidazo[1,5-a]pyrazin-3-yl)hexahydroindolizin-3(2H)-one] | 884 | – | 405
C[C@](O)(c1ccc(-c2nc([C@@H]3CC[C@H]4CCC(=O)N4C3)n3ccnc(N)c23)cc1)c1cccc(C(F)(F)F)c1 [Example 4, (6R,8aS)-6-(8-amino-1-(4-((S)-1-hydroxy-1-(3-(trifluoromethyl)phenyl)ethyl)phenyl)imidazo[1,5-a]pyrazin-3-yl)hexahydroindolizin-3(2H)-one] | 0.62 | – | 3480
C[C@](O)(c1ccc(-c2nc([C@@H]3CC[C@H]4CCC(=O)N4C3)n3c(Cl)cnc(N)c23)cc1)c1cccc(C(F)(F)F)c1 [Example 5, (6R,8aS)-6-(8-amino-5-chloro-1-(4-((S)-1-hydroxy-1-(3-(trifluoromethyl)phenyl)ethyl)phenyl)imidazo[1,5-a]pyrazin-3-yl)hexahydroindolizin-3(2H)-one] | 377 | – | 553
C[C@@](O)(c1ccc(-c2nc([C@@H]3CC[C@H]4CCC(=O)N4C3)n3c(Cl)cnc(N)c23)cc1)c1cccc(C(F)(F)F)c1 [Example 6, (6R,8aS)-6-(8-amino-5-chloro-1-(4-((R)-1-hydroxy-1-(3-(trifluoromethyl)phenyl)ethyl)phenyl)imidazo[1,5-a]pyrazin-3-yl)hexahydroindolizin-3(2H)-one] | 0.76 | – | 1730
CC1(C)C[C@@H]2CC[C@@H](c3nc(-c4ccc([C@@](C)(O)c5cccc(C(F)(F)F)c5)cc4)c4c(N)nccn34)CN2C1=O [Example 7, (6R,8aS)-6-(8-amino-1-(4-((R)-1-hydroxy-1-(3-(trifluoromethyl)phenyl)ethyl)phenyl)imidazo[1,5-a]pyrazin-3-yl)-2,2-dimethylhexahydroindolizin-3(2H)-one] | 0.82 | – | 2790
CC1OC(=O)N2C[C@H](c3nc(-c4ccc([C@@](C)(O)c5cccc(C(F)(F)F)c5)cc4)c4c(N)nccn34)OC[C@@H]12 (stereo partly drawn) [Example 8, (6R,8aS)-6-(8-amino-1-(4-((R)-1-hydroxy-1-(3-(trifluoromethyl)phenyl)ethyl)phenyl)imidazo[1,5-a]pyrazin-3-yl)-1-methyltetrahydrooxazolo[4,3-c][14]oxazin-3(1H)-one] | 20.6 | 5080 | –
C[C@@H]1OC(=O)N2C[C@H](c3nc(-c4ccc([C@@](C)(O)c5cccc(C(F)(F)F)c5)cc4)c4c(N)nccn34)OC[C@@H]12 [Example 9, (6R,8aS)-6-(8-amino-1-(4-((R)-1-hydroxy-1-(3-(trifluoromethyl)phenyl)ethyl)phenyl)imidazo[1,5-a]pyrazin-3-yl)-1-methyltetrahydrooxazolo[4,3-c][1,4]oxazin-3(1H)-one] | 13 | – | 5540
Nc1nccn2c([C@@H]3CC[C@H]4CCC(=O)N4C3)nc(-c3ccc(C(O)(c4ccccc4)C(F)(F)F)cc3)c12 (stereo partly drawn) [Example 12, (6R,8aS)-6-(8-amino-1-(4-(2,2,2-trifluoro-1-hydroxy-1-phenethyl)phenyl)imidazo[1,5-a]pyrazin-3-yl)hexahydroindolizin-3(2H)-one] | 3.4 | – | 1240
CC(O)(c1ccc(-c2nc([C@@H]3CC[C@H]4CCC(=O)N4C3)n3ccnc(N)c23)cc1)c1cccc(C(F)(F)F)c1 (stereo partly drawn) [Example 13, (6R,8aS)-6-(8-amino-1-(4-(1-hydroxy-1-(3-(trifluoromethyl)phenyl)ethyl)phenyl)imidazo[1,5-a]pyrazin-3-yl)hexahydroindolizin-3(2H)-one] | 1.7 | – | 873
CC(C)C(C)(O)c1ccc(-c2nc([C@@H]3CC[C@H]4CCC(=O)N4C3)n3ccnc(N)c23)cc1 (stereo partly drawn) [Example 14, (6R,8aS)-6-{8-amino-1-[4-(1-hydroxy-1,2-dimethylpropyl)phenyl]imidazo[1,5-a]pyrazin-3-yl}hexahydroindolizin-3(2H)-one] | 256 | – | 6950
CC(O)(c1ccc(-c2nc([C@@H]3CC[C@H]4CCC(=O)N4C3)n3ccnc(N)c23)cc1)c1ccc(C(F)(F)F)cc1 (stereo partly drawn) [Example 15, (6R,8aS)-6-[8-amino-1-(4-{1-hydroxy-1-[4-(trifluoromethyl)phenyl]ethyl}phenyl)imidazo[1,5-a]pyrazin-3-yl]hexahydroindolizin-3(2H)-one] | 388 | – | 1780
CC(O)(c1ccc(-c2nc([C@@H]3CC[C@H]4CCC(=O)N4C3)n3ccnc(N)c23)cc1)c1cccc(F)c1 (stereo partly drawn) [Example 16, (6R,8aS)-6-(8-amino-1-{4-[1-(3-fluorophenyl)-1-hydroxyethyl]phenyl}imidazo[1,5-a]pyrazin-3-yl)hexahydroindolizin-3(2H)-one] | 7.3 | – | 2440
CC(O)(c1ccc(-c2nc([C@@H]3CC[C@H]4CCC(=O)N4C3)n3ccnc(N)c23)cc1)c1ccccn1 (stereo partly drawn) [Example 17, (6R,8aS)-6-{8-amino-1-[4-(1-hydroxy-1-pyridin-2-ylethyl)phenyl]imidazo[1,5-a]pyrazin-3-yl}hexahydroindolizin-3(2H)-one] | 324 | – | 5720
CC(O)(c1ccc(-c2nc([C@@H]3CC[C@H]4CCC(=O)N4C3)n3ccnc(N)c23)cc1)c1cccnc1 (stereo partly drawn) [Example 18, (6R,8aS)-6-{8-amino-1-[4-(1-hydroxy-1-pyridin-3-ylethyl)phenyl]imidazo[1,5-a]pyrazin-3-yl}hexahydroindolizin-3(2H)-one] | 359 | – | 10000
CC(O)(c1ccc(F)cc1)c1ccc(-c2nc([C@@H]3CC[C@H]4CCC(=O)N4C3)n3ccnc(N)c23)cc1 (stereo partly drawn) [Example 19, (6R,8aS)-6-(8-amino-1-{4-(1-(4-fluorophenyl)-1-hydroxyethyl]phenyl}imidazo[1,5-a]pyrazin-3-yl)hexahydroindolizin-3(2H)-one] | 170 | – | 2360
CC(O)(c1ccccc1)c1ccc(-c2nc([C@@H]3CC[C@H]4CCC(=O)N4C3)n3ccnc(N)c23)cc1 (stereo partly drawn) [Example 23, (6R,8aS)-6-{8-amino-1-[4-(1-hydroxy-1-phenylethyl)phenyl]imidazol[1,5-a]pyrazin-3-yl}hexahydroindolizin-3(2H)-one] | 3.5 | – | –
Nc1nccn2c([C@@H]3CC[C@H]4CCC(=O)N4C3)nc(-c3ccc(C(O)(c4ccc(C(F)(F)F)cc4)C(F)(F)F)cc3)c12 (stereo partly drawn) [Example 28, (6R,8aS)-6-[8-amino-1-(4-{2,2,2-trifluoro-1-hydroxy-1-[4-(trifluoromethyl)phenyl]ethyl}phenyl)imidazo [1,5-a]pyrazin-3-yl]hexahydroindolizin-3(2H)-one] | 792 | – | –
Nc1nccn2c([C@@H]3CC[C@H]4CCC(=O)N4C3)nc(-c3ccc(C(O)(c4ccc(F)cc4)C(F)(F)F)cc3)c12 (stereo partly drawn) [Example 32, (6R,8aS)-6-(8-amino-1-{4-[2,2,2-trifluoro-1-(4-fluorophenyl)-1-hydroxyethyl]phenyl}imidazo[1,5-a]pyrazin-3-yl)hexahydroindolizin-3(2H)-one] | 161 | – | –
